According to the supplement of paper PMC10307832:

Tests used:
Test in all cases: relative viability (nuclei count vs DMSO), 5 days (fraction); higher = more cells survive
BAY61-3606 + Palbociclib = compound: COC1=C(C=C(C=C1)C2=CC3=NC=CN3C(=N2)NC4=C(C=CC=N4)C(=O)N)OC [BAY61-3606] + CC(=O)c1c(C)c2cnc(Nc3ccc(N4CCNCC4)cn3)nc2n(C2CCCC2)c1=O [Palbociclib] (partner 0.5 µM)
In short: (§1)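 The day after seeding in 1536-well plates, lung cancer cell lines were treated by pin tool with a single drug, or with a fixed anchor-drug dose together with five library-drug doses (not always all listed) in √10 steps. After 5 days, a combined fix-and-stain solution (final 0.05% Triton X-100, 1% formaldehyde, 1 ug/ml Hoechst) was added. Nuclei counted on 4× images gave relative viability as treated counts over vehicle counts, reported as the median of duplicate plates.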

BAY61-3606 + Crizotinib = compound: COC1=C(C=C(C=C1)C2=CC3=NC=CN3C(=N2)NC4=C(C=CC=N4)C(=O)N)OC [BAY61-3606] + C[C@@H](Oc1cc(-c2cnn(C3CCNCC3)c2)cnc1N)c1c(Cl)ccc(F)c1Cl [Crizotinib] (partner 1 µM)
In short: as §1

Doxorubicin + Bortezomib = compound: COc1cccc2c1C(=O)c1c(O)c3c(c(O)c1C2=O)C[C@@](O)(C(=O)CO)C[C@@H]3O[C@H]1C[C@H](N)[C@H](O)[C@H](C)O1 [Doxorubicin] + CC(C)C[C@H](NC(=O)[C@H](Cc1ccccc1)NC(=O)c1cnccn1)B(O)O [Bortezomib] (partner 0.002 µM)
In short: as §1

Doxorubicin + Vorinostat = compound: COc1cccc2c1C(=O)c1c(O)c3c(c(O)c1C2=O)C[C@@](O)(C(=O)CO)C[C@@H]3O[C@H]1C[C@H](N)[C@H](O)[C@H](C)O1 [Doxorubicin] + O=C(CCCCCCC(=O)Nc1ccccc1)NO [Vorinostat] (partner 1 µM)
In short: as §1

Cell Line	relative viability (BAY61-3606 + Palbociclib; first compound 0.02 µM)	relative viability (BAY61-3606 + Palbociclib; first compound 0.06325 µM)	relative viability (BAY61-3606 + Palbociclib; first compound 0.2 µM)	relative viability (BAY61-3606 + Palbociclib; first compound 0.6325 µM)	relative viability (BAY61-3606 + Palbociclib; first compound 2 µM)	relative viability (BAY61-3606 + Crizotinib; first compound 0.02 µM)	relative viability (BAY61-3606 + Crizotinib; first compound 0.06325 µM)	relative viability (BAY61-3606 + Crizotinib; first compound 0.2 µM)	relative viability (BAY61-3606 + Crizotinib; first compound 0.6325 µM)	relative viability (BAY61-3606 + Crizotinib; first compound 2 µM)	relative viability (Doxorubicin + Bortezomib; first compound 0.001 µM)	relative viability (Doxorubicin + Bortezomib; first compound 0.003162 µM)	relative viability (Doxorubicin + Bortezomib; first compound 0.01 µM)	relative viability (Doxorubicin + Bortezomib; first compound 0.03162 µM)	relative viability (Doxorubicin + Bortezomib; first compound 0.1 µM)	relative viability (Doxorubicin + Vorinostat; first compound 0.001 µM)	relative viability (Doxorubicin + Vorinostat; first compound 0.003162 µM)	relative viability (Doxorubicin + Vorinostat; first compound 0.01 µM)	relative viability (Doxorubicin + Vorinostat; first compound 0.03162 µM)	relative viability (Doxorubicin + Vorinostat; first compound 0.1 µM)
201T	0.346	0.349	0.341	0.397	0.366	1.1	0.996	1.01	1.02	1.03	1.06	0.991	1.14	1.15	1.05	0.892	0.996	0.96	1.06	0.942
A549	–	–	–	–	–	0.758	0.756	0.712	0.713	0.406	–	–	–	–	–	–	–	–	–	–
A-427	0.484	0.521	0.544	0.524	0.479	0.85	0.767	0.878	0.97	0.845	1.03	1.06	0.966	0.942	0.991	0.913	0.884	0.847	0.647	0.351
ABC-1	0.39	0.576	0.705	0.796	0.716	0.999	0.978	0.992	1.02	0.821	0.304	0.324	0.364	0.273	0.251	1.25	0.999	0.908	0.509	0.309
BEN	0.456	0.438	0.477	0.442	0.509	0.88	0.748	1.1	1.06	0.84	1.01	1.05	0.821	0.632	0.74	0.617	0.612	0.467	0.58	0.502
CAL-12T	0.634	0.504	0.615	0.287	0.246	0.619	0.537	0.493	0.364	0.205	1.01	1.06	0.853	0.567	0.307	0.928	0.808	0.488	0.228	0.153
COR-L23	0.338	0.252	0.377	0.347	0.215	0.697	0.67	0.527	0.667	0.509	1.04	0.996	0.872	0.447	0.156	0.48	0.395	0.356	0.252	0.157
COR-L 105	0.443	0.437	0.404	0.422	0.411	0.762	0.569	0.674	0.541	0.421	0.787	0.71	0.74	0.41	0.256	0.707	0.788	0.773	0.559	0.434
Calu-6	–	–	–	–	–	0.765	0.77	0.67	0.732	0.352	0.897	1.01	0.804	0.408	0.248	–	–	–	–	–
ChaGo-K-1	0.934	0.846	0.89	0.916	0.865	1.09	0.832	1.06	1.14	1.05	1.16	0.832	0.948	0.47	0.319	0.763	0.76	0.721	0.698	0.574
EBC-1	–	–	–	–	–	0.2	0.195	0.23	0.16	0.224	0.589	0.52	0.542	0.363	0.222	–	–	–	–	–
EKVX	0.405	0.45	0.385	0.496	0.45	0.972	0.868	0.976	1.15	0.806	0.956	1.04	1.06	0.994	0.591	0.764	0.889	0.762	0.724	0.794
EMC-BAC-2	0.516	0.515	0.513	0.587	0.547	0.775	0.696	0.755	0.817	0.573	1.11	1.1	0.997	0.518	0.451	0.872	0.311	0.241	0.22	0.114
EPLC-272H	0.322	0.338	0.373	0.352	0.318	1.03	0.762	0.89	0.87	0.811	0.827	0.98	0.897	1.05	0.931	0.364	0.501	0.381	0.345	0.345
H3255	0.3	0.307	0.301	0.334	0.307	0.922	0.854	0.902	1.05	0.752	0.675	0.889	0.856	0.589	0.306	–	0.913	0.698	0.88	0.428
HARA	0.262	0.23	0.268	0.243	0.306	1.08	1.08	1.06	1.07	0.892	1.1	0.993	1.11	1.08	1	0.593	0.482	0.547	0.589	0.432
HCC-15	0.803	0.673	0.708	0.768	0.601	0.835	0.834	0.806	0.836	0.779	0.953	1.02	0.923	0.623	0.636	0.888	0.847	0.818	0.736	0.747
